Key:
RBM5 = biological target: T1, RBM5 (Homo sapiens, UniProt P52756); conditions: cited from earlier work
T1 sequence (P52756 181-210 limits assumed): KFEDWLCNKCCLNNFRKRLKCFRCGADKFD

caspase-8 = assay: STS-induced caspase-8 activity in neurons; type: cell-based, rat; conditions: 150 nM STS 24 hours; co-treatment 75 μM
[1] = system: Human derived myocardial heart cells; assay: STS injury in human heart cells, viability (CellTiter Blue); type: cell-based; conditions: 24 hour co-treatment; 500 nM or 1 μM STS, 125 μM AQ2S
Description: Human derived myocardial heart cells were seeded onto 96-well plates. 24 hours later cells were injured with STS.
Optimal cell death conditions were established in heart cells. Heart cells were treated with STS at increasing doses for 24 hours (FIG. 28A). […] Heart cells were treated with 500 nM STS+/−125 μM AQ2S or 1 μM STS+/−125 μM AQ2S for 24 hours. Cell viability was measured 24 hours later and expressed as relative fluorescent units (RFU). […] Data were analyzed by ANOVA (p<0.0001); Fisher LSD post-hoc test. * indicates p<0.05. Graphs show Mean+SEM.

caspase-3 [2] = assay: STS-induced caspase-3 (3/7) activity in neurons; type: cell-based, rat
Description: The Caspase3/7-GLO assay uses the exact same reagents as the CellTiter-GLO assay accept for the addition of a luciferin substrate crosslinked to an amino acid caspase cleavage target. Activation of caspases frees luciferin. Luciferin can then be oxidized by luciferase, thereby initiating a light reaction. Luminescence was measured using a luminometer.

caspase3/7 = assay: Stretch injury induced caspase3/7 activity; type: cell-based, rat; conditions: 75 μM pre-treated 30 minutes; 24 hours after injury
Description: Rat cortical neurons are isolated from E16 embryos, and plated on silicone membranes (with defined elastic properties) held in a custom made stainless steel chamber. DIV 7-9 neurons are subjected to a (computer controlled) preset stretch injury; strain rate 10 s^−1 and 50% membrane deformation. AQ2S or DMSO (vehicle control) was added before (pre-treatment) or after post-treatment) injury, Cell death was assayed ˜24 hours after injury by measuring 1) extracellular LDH in the culture media (released from dying/dead cells), 2) caspase-3/7 activation (a protease involved in execution of cell death), and 3) MTT metabolism (a reagent metabolized by living cells).
Caspase activation plays a role in cell death after TBI. Primary rat cortical neurons were grown on a custom made stretch-injury device (An in vitro model of TBI). Neurons were pre-treated with 75 μM AQ2S or vehicle only (DMSO control) for 30 minutes, and subjected to a defined stretch injury. 24 hours after injury caspase3/7 activity was measured. […] (C) In a third experiment, AQ2S was administered 30 minutes before (pre-treatment) or 30 minutes after (post-treatment) stretch-TBI (FIG. 19C) (Experiment 3, n=3/treatment). Data was analyzed using ANOVA and Fisher LSD post-hoc test. Data is significant at (*) p<0.05. Graphs show Mean+SEM.

caspase-3 [3] = assay: Western blot of cleaved caspase-3 and caspase-3 substrates after STS; type: cell-based, rat; conditions: 125 μM
Description: Caspase-3 inhibition was confirmed by biochemical analysis. Protein samples harvested from neurons incubated with 125 μM AQ2S and 500 nM STS for 6 hours were run on western blot. Consistent with caspase-3 inhibition, cleaved (i.e., activated) capase-3 was reduced in AQ2S-treated neurons (FIG. 8D). Finally, the inhibition of caspase-3 by AQ2S was confirmed biochemically via western blot analysis of substrate cleavage products. Poly ADP ribose polymerase is a classic caspase-3 substrate. The parent protein migrates at ˜116 KDa on SDS-PAGE. An 89-KDa product is produced upon cleavage by caspase-3. Cortical neurons were subjected to 250 nM STS for 6 hours.
Neurons used for Western blot analysis for grown in 6-well plates. Briefly, neurons were treated with experimental compounds for the indicated time/conditions. At the end of each experiment, neurons were washed in ice cold PBS and harvested in 65 μL RIPA buffer containing protease inhibitors, phosphatase inhibitors, and EDTA. Extracts were collected in 0.5 mL tubes and sonicated for 20-30 seconds. Cell extracts were then spun at 4° C./16,000 g/10 minutes and stored at −80° C. until use. Frozen extracts were thawed on ice and protein concentration measured using the BCA assay (PIERCE). […] of sample protein was loaded per well of a 7.5% SDS precast gel (Biorad), and run for 30 minutes to 1 hour at 200 V. Kaleidoscope protein standards (Biorad) were run parallel to neuron extracts. Proteins were then transferred to PDVF membranes (run at 100 V/4° C./1.5 hours). PDVF membranes were washed once in tris buffered saline (TBS) and blocked for 1 hour in tris buffered saline/tween-20 with 7.5% nonfat milk (TBS-T/milk). Blots were incubated overnight at 4° C. with primary antibodies in TBS-T/milk. Cell Signaling Technology: phospho-AKT473, AKT Total, phospho-ERK1/2, ERK Total, cleavage caspase-3. Santa Cruz Antibodies: NF-κB p50 subunit, NF-κB p65 subunit, and beta actin. Calbiochem: 4-HNE antibody. Blots were washed 3 times (5 minutes each) with TBS, and incubated with secondary antibodies for 2 hours. Invitrogen: goat anti-rabbit or goat anti-mouse. Blots were washed 3 times (5 minutes each) with TBS, and incubated for 1 minute in HRP detection solution (Amersham). Films were exposed to blots and developed (SRX-101A, Konica Minolta Medical & Graphic Inc.). Re-probed blots (e.g. beta actin, AKT total, ERK total) were stripped in western blot stripping buffer (Fischer Scientific) for 10 minutes, washed once with TBS, re-blocked in TBS-T/milk for 1 hour, and incubated overnight with new primary antibody. Films were scanned (EPSON GT 20,000), and densitometry performed using UN-SCAN-IT software (Silk Scientific).

[4] = biological target: T2, recombinant active caspase-3 (Homo sapiens, UniProt P42574); assay: In vitro cell-free caspase-3 drug screening assay (DEVD-AFC); type: biochemical
T2 construct: The reaction mixture was combined with recombinant active caspase-3 and a DEVD-AFC probe; purchased PromoKine (Heidelberg, Germany)
T2 sequence (P42574 29-175 limits assumed): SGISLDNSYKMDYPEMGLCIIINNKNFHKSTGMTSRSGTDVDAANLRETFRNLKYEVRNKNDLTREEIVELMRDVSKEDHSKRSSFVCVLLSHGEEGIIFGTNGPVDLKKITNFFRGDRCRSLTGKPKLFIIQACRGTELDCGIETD
T2 sequence (P42574 176-277 limits assumed): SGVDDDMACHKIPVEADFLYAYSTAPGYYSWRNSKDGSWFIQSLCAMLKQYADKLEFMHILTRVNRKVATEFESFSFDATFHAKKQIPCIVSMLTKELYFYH
Description: An in vitro caspase drug screening kit was purchased from PromoKine (Heidelberg, Germany), and used according to the manufacturer's instructions. Briefly, all drugs were dissolved in DMSO and diluted in double-distilled water to desired concentration. The reaction mixture was combined with recombinant active caspase-3 and a DEVD-AFC probe. Active caspase-3 cleaves the DEVD-recognition sequence and releases fluorescent AFC. The amount of AFC detected is a measure of caspase-3 activity. Reactions were prepared in black-walled 96-well plates, incubated at 37° C., and AFC release measured with an AFC filter (Ex: 405 nm, Em: 495-505 nM) on a GLOMax-Multi Microplate Reader (Promega).

SMILES: O=C1c2ccccc2C(=O)c2cc(S(=O)(=O)O)ccc21 [AQ2S, anthraquinone-2-sulfonic acid]
- targeting of zinc-finger domain in RBM5 (RBM5; Farina et al. 2011): selective and potent target of the zinc-finger domain in pro-apoptotic RBM5 and inhibits its function
- IC50 (RBM5; read-out: IC50 of AQ2S to inhibit RBM5): ~82 µM
- caspase-8 activity (caspase-8): significantly reduced baseline and injury activity levels
- heart cell viability after STS [1]: increased viability
- caspase-3 activity (caspase-3 [2]; 150 nM STS 24 hours, co-treatment 75 μM): significantly reduced baseline and injury activity levels
- STS-induced caspase-3 activation (caspase-3 [2]; 250 nM STS 24 hours): completely blocked STS-induced caspase-3 activation
- potency among caspase-3, -8 and -9 (caspase-3 [2]; 75 μM): greatest potency against caspase-3
- stretch injury induced caspase3/7 activity (caspase3/7): significantly reduced caspase activation
- 89-KDa PARP cleavage product, western blot (caspase-3 [3]; 250 nM STS 6 hours): significantly reduced the formation of the 89-KDa species
- NF-κB p50 subunit protein levels (caspase-3 [3]; 250 nM STS 17 hours): No change
- NF-κB p65 subunit protein levels (caspase-3 [3]; 250 nM STS 17 hours): increased
- cleaved (activated) caspase-3, western blot (caspase-3 [3]; 500 nM STS 6 hours): reduced
- activity of recombinant caspase-3 [4]: significantly reduced the activity of recombinant caspase-3
